Assay [1] has as its system Hippocampal Cultures. In words: Neuroprotection from glutamate excitotoxicity, propidium iodide cell death assay. In kind it is cell-based, rat. Particulars: for EC50: Rattus norvegicus, Hippocampal Cultures, read-out: NP from Glutamate PI EC50. The method, then:
Hydroxyethyl sulfamides attenuate glutamate-mediated cell death: As an example of HES compounds that prevent cell death associated with glutamate, compound II is shown to attenuate an increase in propidium iodide (PI) produced by acute treatment with glutamate in FIG. 4. For these studies, day 20 hippocampal cultures derived from E18 rats were treated for 5 min with 30 μM glutamate. Following removal of the glutamate, cultures were treated with various concentrations of compound II and the propidium iodide method for measuring cell death was conducted 24 hours after the initiation of treatment. The dotted line labeled “control” represents the mean PI value for control culture receiving no treatment. The dotted line labeled “carisbamate” represents the mean PI value for the reference compound carisbamate, a putative neuroprotective anticonvulsant. The amount of carisbamate used was 100 μM and this concentration had the maximally observed efficacy for this compound. RFU is an abbreviation for relative fluorescent units. Day 15 is the number of days that the cultures were maintained in vitro before conducting the experiment.
(§1) Cell cultures: All compounds are screened with dissociated hippocampal cultures derived from embryonic day 18 rats as the primary test system. With this preparation, primary neurons are used to test for toxicity as well as neuroprotection in a highly relevant experimental system to epilepsy. In brief, hippocampal tissue are obtained commercially through Brain Bits (Springfield, Ill.) and cultures prepared as previously described by Brewer (Brewer, G. J. Serum-free B27/neurobasal medium supports differentiated growth of neurons from the striatum, substantia nigra, septum, cerebral cortex, cerebellum and dentate gyms, J. Neurosci. Res. 1995, 42, 674-683.). The hippocampal neurons are platted at low density (10,000 cell/well) in a 96-well format and maintained in serum-free medium consisting of Neurobasal Medium supplemented with B27 and GlutaMAX (Gibco). Pre-coated poly-L-lysine coated plates are used because of the preferential adherence and survival of hippocampal neurons on this matrix support.
(§2) Carboxyfluorescein (CFDA) was used a vital stain for all cell toxicity and neuroprotection studies. With the use of the CytoFluor fluorimeter, the CFDA assay was employed to assess the viability of neurons. CFDA is a dye that becomes fluorescent upon cell entry and cleavage by cytosolic esterases (Petroski, R. E.; Geller, H. M Selective labeling of embryonic neurons cultures on astrocyte monolayers with 5(6)-carboxyfluorescein diacetate (CFDA). J. Neurosci. Methods 1994, 52, 23-32.). Neuronal specificity is obtained relative to astrocytes because the cleaved dye is extruded extracellularly by glia with time, while dye in neurons remains intracellular. […] To further assess the culture responses, a propidium iodide method was used as previously described (Sarafian, T. A.; Kouyoumjian, S.; Tashkin, D.; Roth, M. D. Synergistic cytotoxicity of 9-tetrahydrocannabianol and butylated hydroxyanisole, Tox. Letters, 2002. 133, 171-179.) to measure the number of dead cells. Propidium iodide becomes fluorescent when binding to the DNA of dead cells. Cultures were treated on day 2 with the test agent and then the two assays were conducted after a […] test period. For all assays, a 96-well format was used. For the screen, log concentration-effect studies were conducted from 10 nM to 1 mM with 8 replications. The duration of the test period was five days. Cultures were given a complete change of medium prior to the initiation of the treatment period.
Potent neuroprotection is the distinguishing characteristic that separates this program's anticonvulsants from all other commercial drugs for epilepsy. The experimental details and the rationale for the implemented assays are essential in differentiating these compounds from that of others. […]

For assay [2], the system named is Hippocampal Cultures. Briefly: Neuroprotection from glutamate excitotoxicity, CFDA neuronal viability assay. In kind it is cell-based, rat. The settings on record: for EC50: Rattus norvegicus, 30 μM glutamate, Hippocampal Cultures, read-out: NP from Glutamate CFDA EC50. The method, then: Pharmacology: Hydroxyethyl sulfamides attenuate glutamate-mediated neuronal viability. As an example, compound II, shown above, is shown to attenuate a decrease in carboxyfluorescein diacetate (CFDA) produced by acute treatment with glutamate in FIG. 1. For these studies, day 20 hippocampal cultures derived from E18 rats were treated for 5 min with 30 μM glutamate. Following removal of the glutamate, cultures were treated with various concentrations of compound II and the CFDA neuronal viability assay was conducted 24 hours after the initiation of treatment. The dotted line labeled “control” represents the mean CFDA value for control culture receiving no treatment. The dotted line labeled “carisbamate” represents the mean CFDA value for the reference compound carisbamate, a putative neuroprotective, anticonvulsant. For the CFDA measurements, RFU is the abbreviation for relative fluorescent units. The reference anticonvulsant compound carisbamate was tested at 100 μM, as lower concentrations were ineffective.
as §1, §2
Potent neuroprotection is the distinguishing characteristic that separates this program's anticonvulsants from all other commercial drugs for epilepsy. The experimental details and the rationale for the implemented assays are essential in differentiating these compounds from that of others. The central objective of all neuroprotective assays was their relevancy to excitotoxicity and oxidative stress related to epilepsy. […]

For assay [3], the system named is Hippocampal Cultures. Briefly: Neuroprotection from hydrogen peroxide (oxidative stress), propidium iodide assay. The settings on record: Rattus norvegicus, 10 μM Hydrogen Peroxide, read-out: NP from HP PI EC50. In kind it is cell-based.
Excerpt: as §1
(§3) Potent neuroprotection is the distinguishing characteristic that separates this program's anticonvulsants from all other commercial drugs for epilepsy. The experimental details and the rationale for the implemented assays are essential in differentiating these compounds from that of others. The central objective of all neuroprotective assays was their relevancy to excitotoxicity and oxidative stress related to epilepsy. Both the amount of glutamate and hydrogen peroxide used in the assays, as well as the time of treatment and duration of the experiment, were designed to be relevant to epilepsy. Further, all time parameters employed in these studies were empirically determined to be within the limits of reversible toxic events, yet using amounts of glutamate and hydrogen peroxide that were relevant to the disease. In regard to glutamate toxicity, a critical feature was the duration of treatment of the hippocampal neurons. The rational for using a short 5 min treatment with glutamate was based on the observation of Randall and Thayer (Randall, R. D.; Thayer, S. A. Glutamate-induced calcium transient triggers calcium overload and neurotoxicity in rat hippocampal neurons, J. Neurosci. 1992, 12, 1882-1895). […] The rationale is that this intense burst of glutamate and resulting calcium overload is relevant to seizures and therefore was important data to capture in the screening assay. The amount of glutamate (30 μM) employed in our screening was based on the basal levels of glutamate observed in microdialysis measurements of hippocampus from epileptogenic patients (Cavus et al. Decreased hippocampal volume on MRI is associated with increased extracellular glutamate in epilepsy patients, Epilepsia, 2008, 49, 1358-1366.). In regard to hydrogen peroxide, the amount employed (10 μM) was detected in the hippocampus of rats after kainate-induced status epilepticus (Jarrett et. al., Mitochondrial DNA damage and impaired base excision repair during epileptogenesis, Neurobiol. Dis. 2008, 30, 130-138). To produce neural damage and death with these amounts of glutamate and hydrogen peroxide, the cultures were changed to a medium with significant depletion of antioxidant components in the defined medium supplement B-27 just prior to treatment with the compounds. This was performed to obtain a significant and reproducible toxic signal in the hippocampal neurons and because loss of antioxidant control may be a component of epileptogenesis (Waldbaum and Patel, Mitochondria, oxidative stress and temporal lobe epilepsy, Epilepsy Res. 2010 88, 23-45.; Wu et al., Mitochondrial DNA mutation-elicited oxidative stress, oxidative damage, and altered gene expression in cultured cells of patients with MERRF syndrome, Mol. Neurobiol. 2010, 41, 256-266.). Neuroprotection studies with hydrogen peroxide were conducted with cultures that were between day 12 and day 18. Studies of neuroprotection glutamate were conducted between day 19 and day 22. […]

Assay [4] concerns Hippocampal Cultures. In words: Neuroprotection from hydrogen peroxide (oxidative stress), CFDA assay. Particulars: Rattus norvegicus, 10 μM Hydrogen Peroxide, read-out: NP from HP CFDA EC50. In kind it is cell-based.
Excerpt: as §1, §3

Where [5] appears, read: day 20 hippocampal cultures, 5 min 30 μM glutamate, CFDA assay 24 hours after initiation of treatment (FIG. 1-3).

Where only a bound is given, the exact number is not on record here.

One may read the EC50 as the concentration at which the effect is half-maximal. Consider `NS(=O)(=O)NCC(O)c1ccccc1F` (stereo in doubt) [Example 10, (S)-2-(2-Fluorophenyl)-2-hydroxyethylsulfamide], for which the half-maximal effective concentration (EC50) is 0.1 µM in the assay with Hippocampal Cultures [1] (30 μM glutamate), 300 µM in the assay with Hippocampal Cultures [2], 0.1 µM in the assay with Hippocampal Cultures [3] and 1 µM in the assay with Hippocampal Cultures [4].

Consider `NS(=O)(=O)NCC(O)c1ccccc1F` (stereo in doubt) [Example 11, (R)-3-(2-Fluorophenyl)-2-hydroxyethylsulfamide], for which the EC50 with Hippocampal Cultures [3] and in the assay on Hippocampal Cultures [4] was 300 µM each time.

On to `NS(=O)(=O)NCC(O)c1ccccc1Cl` (stereo not drawn) [Example 1, 2-(2-Chlorophenyl)-2-hydroxyethylsulfamide], for which the concentration for a half-maximal effect (EC50) stood at 100 µM in the assay on Hippocampal Cultures [1] (30 μM glutamate) and 30 µM in the assay on Hippocampal Cultures [2].

As for `NS(=O)(=O)NCC(O)c1cccc(Cl)c1` (stereo not drawn) [Example 2, 2-(3-Chlorophenyl)-2-hydroxyethylsulfamide], the EC50 in the assay on Hippocampal Cultures [1] (30 μM glutamate) is over 300 µM; in the assay on Hippocampal Cultures [2], over 300 µM; with Hippocampal Cultures [3] it was 100 µM; with Hippocampal Cultures [4], 100 µM.

In the case of `NS(=O)(=O)NCC(O)c1ccsc1` (stereo not drawn) [Example 3, 2-(thiophen-3-yl)-2-hydroxyethylsulfamide], the EC50 in the assay on Hippocampal Cultures [1] (30 μM glutamate) was 30 µM; with Hippocampal Cultures [2] it was over 300 µM; in the assay with Hippocampal Cultures [3], 30 µM; in the assay with Hippocampal Cultures [4], 30 µM.

In the case of `NS(=O)(=O)NCC(O)c1cc2ccccc2s1` (stereo not drawn) [Example 4, 2-(benzothiophen-2-yl)-2-hydroxyethylsulfamide], the EC50 in the assay on Hippocampal Cultures [1] (30 μM glutamate) turned out to be 10 µM; in the assay with Hippocampal Cultures [2] it was 100 µM; in the assay with Hippocampal Cultures [3], 30 µM; in the assay on Hippocampal Cultures [4] it was 100 µM.

As for `NS(=O)(=O)NCC(O)c1cc(Cl)ccc1Cl` (stereo not drawn) [Example 5, 2-(2,5-dichlorophenyl)-2-hydroxyethylsulfamide], the EC50 in the assay on Hippocampal Cultures [1] (30 μM glutamate) is 30 µM; in the assay on Hippocampal Cultures [2], over 300 µM; in the assay with Hippocampal Cultures [3], over 300 µM; with Hippocampal Cultures [4], over 300 µM.

For `NS(=O)(=O)NCC(O)c1ccccc1F` (stereo not drawn) [Example 6, 2-(2-fluorophenyl)-2-hydroxyethylsulfamide], the half-maximal effective concentration (EC50) turned out to be 10 µM with Hippocampal Cultures [1] (30 μM glutamate), 100 µM in the assay on Hippocampal Cultures [2], 0.01 µM in the assay on Hippocampal Cultures [3] and 10 µM in the assay on Hippocampal Cultures [4].

Take `NS(=O)(=O)NCC(O)c1csc2ccccc12` (stereo not drawn) [Example 7, 2-(benzothiophen-3-yl)-2-hydroxyethylsulfamide]: the concentration giving a half-maximal response (EC50) in the assay on Hippocampal Cultures [1] (30 μM glutamate) was over 300 µM; in the assay on Hippocampal Cultures [2] it was 30 µM.

As for `CC(O)(CNS(N)(=O)=O)c1ccccc1Cl` (stereo not drawn) [Example 8, 2-(2-chlorophenyl)-2-methyl-2-hydroxyethylsulfamide], the EC50 with Hippocampal Cultures [1] (30 μM glutamate) was 300 µM; in the assay with Hippocampal Cultures [2], over 300 µM; in the assay on Hippocampal Cultures [3] it was 0.1 µM; with Hippocampal Cultures [4], 100 µM.

Turning to `NS(=O)(=O)N1CC(O)(c2csc3ccccc23)C1` [Example 9, 3-Benzo[b]thiophen-3-yl-3-hydroxy-azetidine-1-sulfonamide], the concentration giving a half-maximal response (EC50) is 1 µM in the assay with Hippocampal Cultures [1] (30 μM glutamate), 0.1 µM in the assay on Hippocampal Cultures [2], over 300 µM in the assay with Hippocampal Cultures [3] and over 300 µM in the assay on Hippocampal Cultures [4].

For `NS(=O)(=O)NC[C@@H](O)c1ccccc1Cl` [Example 12, (S)-2-(2-Chlorophenyl)-2-hydroxyethylsulfamide], the EC50 in the assay on Hippocampal Cultures [1] (30 μM glutamate) was 10 µM; in the assay with Hippocampal Cultures [2] it was 30 µM; with Hippocampal Cultures [3], over 300 µM; in the assay with Hippocampal Cultures [4] it was 30 µM.

On to `NS(=O)(=O)NC[C@H](O)c1ccccc1Cl` [Example 13, (R)-2-(2-Chlorophenyl)-2-hydroxyethylsulfamide], for which the EC50 in the assay with Hippocampal Cultures [1] (30 μM glutamate) was 10 µM; with Hippocampal Cultures [2] it was 0.01 µM; with Hippocampal Cultures [3], over 300 µM; in the assay with Hippocampal Cultures [4] it was 300 µM.

Consider `NC(=O)OC[C@@H](O)c1ccccc1Cl` [carisbamate, reference compound], for which, in the assay with Hippocampal Cultures [1] (hippocampal cultures, 30 μM glutamate), the “concentration with the maximally observed efficacy (propidium iodide)” value was found to be 100 µM. For the same molecule, in the assay on Hippocampal Cultures [2] (concentrations lower than 100 μM), the “effect on glutamate-mediated decrease in neuronal viability (CFDA)” value (shortened to “effect on glutamate-mediated decrease”) is listed as “ineffective”.

Regarding `NS(=O)(=O)NCC(O)c1ccccc1Cl` (stereo not drawn) [compound II], in the assay on Hippocampal Cultures [1] (day 20 hippocampal cultures, 5 min 30 μM glutamate, PI 24 hours after initiation of treatment (FIG. 4)), the “effect on glutamate-mediated increase in cell death (propidium iodide)” value is reported as “attenuate”. Besides, the “effect on glutamate-mediated decrease” value in the assay with Hippocampal Cultures [2] (setting [5]) is listed as “attenuate”.

Regarding `NS(=O)(=O)NCC(O)c1csc2ccccc12` (stereo not drawn) [compound IV], in the assay on Hippocampal Cultures [2] (setting [5]), the “effect on glutamate-mediated decrease” value is on record as “efficacious”.

For the origin of these results see patent publication US20120302546A1, “NOVEL SULFAMIDES EXHIBITING NEUROPROTECTIVE ACTION AND METHODS FOR USE THEREOF” (FOX CHASE CHEMICAL DIVERSITY CENTER, INC., priority 2010, published 2012).
